According to ChEMBL document CHEMBL1154917, “Flavanone and diphenylpropane glycosides and glycosidic acyl esters from Viscum articulatum” (J Nat Prod, 2010):

What was measured:
[1] = tested on: Radical scavenging activity; experiment: Antioxidant activity assessed as DPPH radical scavenging activity after 30 mins; type: functional
[2] = Cytotoxicity against mouse RAW264.7 cells assessed as cell viability at 1 to 20 uM after 24 hrs by MTT assay relative to control; type: cell-based; details: read-out: Activity
[3] = tested on: RAW264.7; experiment: Antiinflammatory activity against mouse RAW264.7 cells assessed as Inhibition of LPS-induced nitric oxide production after 24 hrs by ELISA; type: functional, cell-based; details: RAW264.7, 24 h

| Compound | IC50 [3] | ED50 [1] | viability at 24 h, up to 20 µM [2] |
| --- | --- | --- | --- |
| COc1cc(CCCc2c(OC)cc(O)c(OC)c2OC)ccc1O[C@@H]1O[C@H](CO)[C@@H](O)[C@H](O)[C@H]1O | 30.2 µM | > 100 µM | 77% |
| O=C(/C=C/c1ccccc1)OC[C@@]1(O)CO[C@@H](O[C@@H]2[C@@H](O)[C@H](OCc3ccccc3)O[C@H](CO)[C@H]2O)[C@@H]1O [VISARTISIDE E] | 39.6 µM | > 100 µM | 88.1% |
| O=C(/C=C/c1ccccc1)OC[C@@]1(O)CO[C@@H](O[C@H]2[C@H](Oc3cc(O)c4c(c3)O[C@H](c3ccc(O)c(O)c3)CC4=O)O[C@H](CO)[C@@H](O)[C@@H]2O)[C@@H]1O [VISARTISIDE C] | 14.9 µM | > 100 µM | 99.7% |
| O=C(/C=C/c1ccccc1)OC[C@@]1(O)CO[C@@H](O[C@@H]2[C@@H](O)[C@@H](O)O[C@H](CO)[C@H]2O)[C@@H]1O [VISARTISIDE D] | 32.3 µM | > 100 µM | 80.2% |
| O=c1c(O)c(-c2ccc(O)c(O)c2)oc2cc(O)cc(O)c12 [QUERCETIN] | 32.1 µM |  | 100% |
| Cc1c(C)c2c(c(C)c1O)CC[C@@](C)(CCC[C@H](C)CCC[C@H](C)CCCC(C)C)O2 |  | 28.4 µM |  |
| COc1ccc(/C=C/CO[C@@H]2O[C@H](CO)[C@@H](O)[C@H](O[C@@H]3OC[C@](O)(COC(=O)/C=C/c4ccccc4)[C@H]3O)[C@H]2O)cc1O [VISARTISIDE F] | 27.8 µM | > 100 µM | 85.2% |

The next lines start with results.

| IC50 [3] | Compound | ED50 [1] | viability at 24 h, up to 20 µM [2] |
| --- | --- | --- | --- |
| 25.1 µM | O=C(/C=C/c1ccccc1)OC[C@H]1O[C@@H](Oc2cc(O)c3c(c2)O[C@H](c2ccc(O)c(O)c2)CC3=O)[C@H](O)[C@@H](O)[C@@H]1O [VISARTISIDE B] | 34.1 µM | 100% |
| 23.4 µM | COc1cc([C@@H]2CC(=O)c3c(O)cc(O[C@@H]4O[C@H](CO)[C@@H](O)[C@H](O)[C@H]4O)cc3O2)ccc1O | 100 µM | 88.7% |
| 42.6 µM | O=C1C[C@@H](c2ccc(O)cc2)Oc2cc(O[C@@H]3O[C@H](CO)[C@@H](O)[C@H](O)[C@H]3O)cc(O)c21 [PRUNIN] | > 100 µM | 100% |
| 19.2 µM | O=C1C[C@@H](c2ccccc2)Oc2cc(O[C@@H]3O[C@H](CO)[C@@H](O)[C@H](O)[C@H]3O)cc(O)c21 | > 100 µM | 74.5% |
| 15.6 µM | O=C(/C=C/c1ccccc1)O[C@H]1[C@H](Oc2cc(O)c3c(c2)O[C@H](c2ccc(O)c(O)c2)CC3=O)O[C@H](CO)[C@@H](O)[C@@H]1O [VISARTISIDE A] | 37.6 µM | 100% |
| 41.2 µM | O=C1C[C@@H](c2ccc(O)c(O)c2)Oc2cc(O[C@@H]3O[C@H](CO)[C@@H](O)[C@H](O)[C@H]3O)cc(O)c21 | 63.3 µM | 100% |
